Test results from patent US4988703A, “Carbocyclic nucleoside analogs with antiviral activity” (Abbott Laboratories, priority 1989, dated 1991).
In brackets after ≈: the same amount, converted by molar mass. Where two headings read alike, the source gives them in different places.

Columns and labels:
[1] = test system: Herpes simplex type 1 (HSV-1) strain E-377
[2] = test system: Herpes simplex type 2 (HSV-2) strain MS
[3] = test system: Herpes simplex type 1 (HSV-1) strain E-377; assay: microbe, parasite or virus in culture; settings: Human alphaherpesvirus 1, Vero, read-out: ID50: minimum drug concentration that inhibited the CPE by 50%
[4] = test system: Herpes simplex type 2 (HSV-2) strain MS; assay: microbe, parasite or virus in culture; settings: Human alphaherpesvirus 2, Vero, read-out: ID50: minimum drug concentration that inhibited the CPE by 50%
[5] = Drug cytotoxicity in Vero host cells (cytotoxicity controls of the CPE-inhibition assay); settings: african green monkey, vero cells
Experimental: (§1) The challenge viruses were propagated and assayed in cells that were pregrown as monolayer cultures in plastic tissue culture flasks and 96-well plates, using cell culture media appropriate for the host cell cultures. The following viruses and host cell cultures were employed:
(§2) On the day of use, a weighed sample of each compound to be evaluated was dissolved and diluted in serial 10^0.5 dilutions in the culture medium appropriate for each virus-host cell system.
(§3) Mammalian cells were pregrown as monolayers in wells of COSTAR 96-well tissue culture plates using suitable cell culture media. Stock viruses were pretitered according to the method of Reed and Muench (Amer. J. Hyg. 27:493-497, 1938) and diluted in cell culture medium to yield 32 CCID50 (cell culture infectious dose, 50%) units per 0.1 ml. Antiviral assays were designed to test seven concentrations of each compound, from cytotoxic to noncytotoxic levels, in triplicate against each of the challenge viruses in microtiter plate wells containing suitable cell monolayers. To each of the replicate cell cultures were added 0.1 ml of the test drug solution and 0.1 ml of virus suspension. Cell controls containing medium alone, virus controls containing medium and virus, and drug cytotoxicity controls containing medium and each drug concentration were run simultaneously with the test samples assayed in each experiment. […] The cell monolayers were examined microscopically for virus-induced CPE and for drug cytotoxicity.
(§4) Antiviral activity was determined by calculating the degree of inhibition of virus-induced CPE in drug-treated, virus-infected cell cultures by means of a virus rating (VR). The VR is a standard weighted measurement of antiviral activity taking into account both the degree of CPE inhibition and drug cytotoxicity, and is determined by a modification of the method of Ehrlich et al. (Ann. N.Y. Acad. Sci. 130 : 5-16, 1965) as described below. CPE was graded for each individual culture in each microtiter plate well according to the following scale:
(§5) ^3 MTC=The minimum drug concentration (ug/ml) causing any cytotoxicity.

[6] = test system: African green monkey kidney (Vero); assay: as above; settings: Vero, HSV-2 (MS) experiment
Experimental: as §1, §2, §3, §4, §5

[7] = test system: Human influenza type A (IV-A) strain PR/8/34 (HINI); assay: CPE-inhibition assay against human influenza virus type A in MDCK cells; format: cell-based
in vitro = settings: dog, mdck
Experimental: as §1, §2
Mammalian cells were pregrown as monolayers in wells of COSTAR 96-well tissue culture plates using suitable cell culture media. Stock viruses were pretitered according to the method of Reed and Muench (Amer. J. Hyg. 27:493-497, 1938) and diluted in cell culture medium to yield 32 CCID50 (cell culture infectious dose, 50%) units per 0.1 ml. Antiviral assays were designed to test seven concentrations of each compound, from cytotoxic to noncytotoxic levels, in triplicate against each of the challenge viruses in microtiter plate wells containing suitable cell monolayers. To each of the replicate cell cultures were added 0.1 ml of the test drug solution and 0.1 ml of virus suspension. […]
Antiviral activity was determined by calculating the degree of inhibition of virus-induced CPE in drug-treated, virus-infected cell cultures by means of a virus rating (VR). […]

In the case of `Nc1nc2c(ncn2C2CC2CCO)c(=O)[nH]1` (stereo not drawn) [Example 2E, 9-[2-(2'-hydroxyethyl)cyclopropyl]guanine], the “TI (Therapeutic Index): minimum cytotoxic drug concentration divided by ID50” value ([1]; HSV-1 E-377, Vero) is reported as greater than 10.4, the “VR (Virus Rating)” value ([1]; HSV-1 E-377, Vero, VR 1.0 definite activity, 0.5-0.9 marginal to moderate, <0.5 usually none) is reported as 3.7 and the “TI (Therapeutic Index): minimum cytotoxic drug concentration divided by ID50” value ([2]; HSV-2 MS, Vero) is reported as greater than 4.1. For the same molecule, the “VR (Virus Rating)” value ([2]; HSV-2 MS, Vero, VR 1.0 definite activity, 0.5-0.9 marginal to moderate, <0.5 usually none) was 2.3, the IC50 [3] was 31.6 µg/mL (≈ 134 µM) and the IC50 [4] was 77.7 µg/mL (≈ 330 µM). The MCC [5] was greater than 320 µg/mL and the “MTC: minimum drug concentration causing any cytotoxicity” value [6] was greater than 320 µg/mL.

In the case of `Nc1nc2c(ncn2C2CC2C(O)CO)c(=O)[nH]1` (stereo not drawn) [Example 3G], the “VR (Virus Rating)” value [7] is reported as 0.6, the “VR (Virus Rating)” value [1] is reported as 1.8 and the “TI (Therapeutic Index): minimum cytotoxic drug concentration divided by ID50” value ([1]; HSV-1 E-377, Vero) is reported as 3.2. The “VR (Virus Rating)” value [2] was 1.3, the “TI (Therapeutic Index): minimum cytotoxic drug concentration divided by ID50” value ([2]; HSV-2 MS, Vero) was 2.0 and the MCC (in vitro) was greater than 320 µg/mL. The IC50 [3] was 101 µg/mL (≈ 402 µM), the IC50 [4] was 159 µg/mL (≈ 633 µM) and the MCC [5] was greater than 320 µg/mL. The “MTC: minimum drug concentration causing any cytotoxicity” value [6] was greater than 320 µg/mL.
